Laboratory results published in patent US20180036231A1, “PREVENTION OF AND RECOVERY FROM DRUG-INDUCED OTOTOXICITY” (Otonomy, Inc., priority 2011, published 2018).
Where two headings read alike, the source gives them in different places.

Experiments:
[1] = female, guinea pig, in vivo
Description: (§1) Female guinea pigs (Charles River) weighing 200-300 g, of approximately 6-8 weeks of age are used (N=4 per group). Prior to any procedure, animals are anesthetized using a combination of xylazine (10 mg/kg), ketamine (40 mg/kg) and acepromazine (0.75 mg/kg) for up to an hour via the intramuscular route. If needed, an intraoperative booster is administered intraperitoneally representing one-tenth of the original dose. Intratympanic injection—Each animal is positioned so that the head is tilted at an angle to favor injection towards the round window niche. Briefly, under visualization with an operating microscope, 50 μl of formulations comprising 0.2-6% dexamethasone and varying concentrations of P407 are administered to the animals. […] During the procedure and until recovery, animals are placed on a temperature controlled (40° C.) heating pad until consciousness is regained at which time they are returned to the vivarium.
(§2) The skin behind the ear of anesthetized guinea pigs is shaved and disinfected with povidone-iodine. An incision is then made behind the ear, and muscles are carefully retracted from over the bulla. A hole is drilled though the bulla using a dental burr so that the middle ear is exposed and accessible. The cochlea and the round window membrane are visualized under a stereo surgical microscope. A unique microhole is hand drilled through the bony shell of the cochlea (active capsule) adjacent to the round window. Perilymph (5 μl) is then collected using a microcapillary inserted into the cochlear scala tympani.

[2] = test system: Cisplatin induced hearing loss; experiment: Cisplatin induced ototoxicity model, intratympanic injection, hearing by ABR; assay type: in vivo, guinea pig
Description: Intratympanic injection of a formulation of Example 1 is administered the day before cisplatin administration. The lower right quadrant of the abdomen is shaved 1 inch and swabbed with alcohol. A tiny (2-3 mm) incision is made on the abdomen and a 21 G blunt needle is used to penetrate the abdominal wall and into the intraperitoneal cavity. The needle will be connected to an infusion bag containing cisplatin for a slow infusion of 15-30 minutes in the range of 5-15 mg/kg. The incision site is closed using sterile staples. Animals will be placed on a warming pad during the infusion and while recovering. In addition, animals receive twice daily IP injection of saline solution for 3 days to prevent nephrotoxicity.
The hearing of the animal is tested by recording the brainstem activity in response to a known auditory stimulus. (ABR: Auditory Brainstem Response) at various time points. This measurement is performed under general anesthesia. During the procedure the animal is placed on a heating pad (40° C.) in a sound proof booth and an earphone is fitted loosely into one ear at a time. Three subcutaneous needle electrodes are used to measure the brainstem activity. […] The recording then takes place, where the audio stimulus is applied at different frequencies and hearing thresholds, and the brainstem activity recorded.

[3] = Inner ear (perilymph) pharmacokinetics after intratympanic administration in guinea pigs; conditions: for methylprednisolone peak level in the perilymph: intratympanic administration of hydrogel
Description: as §1, §2

[4] = In vitro dissolution / mean dissolution time (MDT) of active agent from formulation; assay type: physicochemical
Description: The release profile of compositions suitable for methods described herein is optionally determined using dissolution techniques. In one embodiment, dissolution is performed at 37° C. in snapwells (6.5 mm diameter polycarbonate membrane with a pore size of 0.4 μm), 0.2 mL of a gel formulation described herein (e.g., a gel formulation of Example 1) is placed into snapwell and left to harden, then 0.5 mL buffer is placed into reservoir and shaken using a Labline orbit shaker at 70 rpm. Samples are taken every hour (0.1 mL withdrawn and replace with warm buffer). Samples are analyzed for active agent concentration by UV at 245 nm against an external calibration standard curve. Pluronic concentration is analyzed at 624 nm using the cobalt thiocyanate method. Relative rank-order of mean dissolution time (MDT) as a function of % P407 is determined. […] A non-linear relationship indicates release of active agent via a combination of diffusion and/or polymer gel degradation.
The MDT is inversely proportional to the release rate of an active agent from a composition described herein. Experimentally, the released active agent is optionally fitted to the Korsmeyer-Peppas equation: […]
where Q is the amount of active agent released at time t, Qα is the overall released amount of active agent, k is a release constant of the nth order, n is a dimensionless number related to the dissolution mechanism and b is the axis intercept, characterizing the initial burst release mechanism wherein n=1 characterizes an erosion controlled mechanism. The mean dissolution time (MDT) is the sum of different periods of time the drug molecules stay in the matrix before release, divided by the total number of molecules and is optionally calculated by: […]
In alternate embodiments, samples are analyzed using the method described by Li Xin-Yu paper [Acta Pharmaceutica Sinica 2008, 43(2):[…]] and Rank-order of mean dissolution time (MDT) as a function of % P407 is determined.

[5] = test system: noise induced hearing loss; experiment: Acoustic trauma / noise induced hearing loss model, intratympanic injection, hearing by ABR; assay type: in vivo, guinea pig; conditions: thermoreversible gel formulation, prophylactic intratympanic administration
Description: The hearing of the animal is tested by recording the brainstem activity in response to a known auditory stimulus. (ABR: Auditory Brainstem Response) at various time points. This measurement is performed under general anesthesia. During the procedure the animal is placed on a heating pad (40° C.) in a sound proof booth and an earphone is fitted loosely into one ear at a time. Three subcutaneous needle electrodes are used to measure the brainstem activity. One is placed behind the ear with the earphone, one on the vertex of the skull and one in the hindleg. The recording then takes place, where the audio stimulus is applied at different frequencies and hearing thresholds, and the brainstem activity recorded.
Following the procedure described in Example 9, a dexamethasone formulation is administered to guinea pigs prior to exposure to acoustic trauma. Hearing is evaluated as described in Example 8 above.
Following the procedure described in Example 9, a SP600125 formulation is administered to guinea pigs prior to exposure to acoustic trauma. Hearing is evaluated as described in Example 9 above.

[6] = intratympanic administration in hydrogel vehicle

## CC(=O)OCC(=O)[C@@]1(O)[C@H](C)C[C@H]2[C@@H]3CCC4=CC(=O)C=C[C@]4(C)[C@@]3(F)[C@@H](O)C[C@@]21C [DA, Dexamethasone acetate]
[1]
  inner ear exposure, dexamethasone in perilymph (AUC): 84000 to 359000 ng·h/mL
  residence time in inner ear compartment (MRT): 17 to 82 h

## C[C@@H]1C[C@H]2[C@@H]3CCC4=CC(=O)C=C[C@]4(C)[C@@]3(F)[C@@H](O)C[C@]2(C)[C@@]1(O)C(=O)COP(=O)([O-])[O-].[Na+].[Na+] [DSP]
[2]; 2.0% solution, single bilateral intratympanic injection one day before cisplatin 12 mg/kg, Day 7 post cisplatin
  auditory function versus saline control, acute cisplatin ototoxicity: No significant differences
[3]; [6]
  inner ear exposure, dexamethasone in perilymph (AUC): 28000 to 57000 ng·h/mL
  residence time in inner ear compartment (MRT): 4 to 7 h
[4]; 17% Poloxamer 407 formulation
  MDT (mean dissolution time): about 3 h
[4]; aqueous solution
  MDT (mean dissolution time): 0.3 h

## C[C@H]1C[C@@H]2[C@H]([C@@H](O)C[C@@]3(C)[C@H]2CC[C@]3(O)C(=O)CO)[C@@]2(C)C=CC(=O)C=C12 [MP, methylprednisolone]
[3]
  methylprednisolone peak level in the perilymph: 19.2 µg/mL
[3]; intratympanic hydrogel
  decline of perilymph levels after peak (in words): decreased slowly over 10 days

## C[C@H]1C[C@@H]2[C@H]([C@@H](O)C[C@@]3(C)[C@H]2CC[C@]3(O)C(=O)COC(=O)CCC(=O)[O-])[C@@]2(C)C=CC(=O)C=C12.[Na+] [MPS]
[3]
  methylprednisolone peak level in the perilymph: 6.5 µg/mL
[3]; within 3 days after intratympanic hydrogel
  perilymph level as fraction of the peak levels: 0.8-1.0%
[4]; 17% Poloxamer 407 formulation
  MDT (mean dissolution time): about 3 h

## CC#C[C@]1(O)CC[C@H]2[C@@H]3CCC4=CC(=O)CCC4=C3[C@@H](c3ccc(N(C)C)cc3)C[C@@]21C [Mifepristone]
[2]; 6.0% mifepristone + 6.0% dexamethasone gel, intratympanic, one day before cisplatin 12 mg/kg
  effect on dexamethasone gel protection against acute cisplatin ototoxicity: antagonizes dexamethasone gel protection

## O=C1c2ccccc2-c2n[nH]c3cccc1c23 [SP600125, anthra[1,9-cd]pyrazol-6(2H)-one]
[5]
  protection against acoustic trauma / prevention of hearing loss: preventing hearing loss due to acoustic trauma

## IGF-1: insulin-like growth factor, trophic agent/growth factor (PeproTech)
[5]
  protection against acoustic trauma / prevention of hearing loss: protects against acoustic trauma
